Data reported in ChEMBL document CHEMBL1201862, “PubChem BioAssay data set” (2004).
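Grown in 96-well plates, cells were treated for 48 hours with each compound at five concentrations. Insufficient inhibition: endpoint recorded as highest concentration tested. GI50: concentration for 50% inhibition of growth.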 Calls of active or inactive are those of the source. Rule as the data show it: active = GI50 up to about 1.1 µM and inactive = higher.

Key:
Assay in all cases: DTP human tumour cell line panel, 48 h
[1] = system: MDA-N
[2] = system: SN12C
[3] = system: OVCAR-3
[4] = system: NCI-H23
[5] = system: SK-MEL-2
[6] = system: T47D
[7] = system: NCI-H226
[8] = system: Hs-578T
[9] = system: OVCAR-8
[10] = system: SW-620
[11] = system: M14
[12] = system: DU-145
[13] = system: HCC 2998
[14] = system: NCI-H460
[15] = system: A498
[16] = system: EKVX
[17] = system: PC-3
[18] = system: NCI/ADR-RES
[19] = system: SR
[20] = system: HOP-62

Measured: GI50

CC(=O)N1c2ccccc2C23CCN4CC5=CCOC(O)C(C5CC42)C13 (centres undefined)
inactive: [1] > 100 µM | [2] > 100 µM | [3] > 100 µM | [4] > 100 µM | [5] > 100 µM | [6] > 100 µM | [7] > 100 µM | [8] > 100 µM | [9] > 100 µM | [10] > 100 µM | [11] > 100 µM | [12] > 100 µM | [13] > 100 µM | [14] > 100 µM | [15] > 100 µM | [16] > 100 µM | [17] > 100 µM | [18] > 100 µM

Cc1c(C(=O)C(=O)c2ccccc2)c(C)c(C(=O)C(=O)c2ccccc2)c(C)c1C(=O)C(=O)c1ccccc1
inactive: [1] > 100 µM | [2] > 100 µM | [19] > 100 µM | [6] > 100 µM | [8] > 100 µM | [9] > 100 µM | [10] > 100 µM | [20] > 100 µM | [11] > 100 µM | [13] > 100 µM | [14] > 100 µM | [16] > 100 µM | [17] > 100 µM | [18] > 100 µM

C(=N\OCCc1ccccc1)/c1cccnc1
inactive: [1] > 100 µM | [2] > 100 µM | [3] > 100 µM | [4] > 100 µM | [5] > 100 µM | [6] > 100 µM | [7] > 100 µM | [8] > 100 µM | [9] > 100 µM | [10] > 100 µM | [20] > 100 µM | [11] > 100 µM | [12] > 100 µM | [13] > 100 µM | [14] > 100 µM | [16] > 100 µM | [17] > 100 µM | [18] > 100 µM

COC(=O)c1cc(C)ccc1C1CN=NC12Cc1c(C)cc(C)cc1C2=O (centres undefined)
inactive: [1] 14.4 µM | [2] 28.6 µM | [3] 14.9 µM | [4] 19.1 µM | [5] 16.4 µM | [6] 31 µM | [7] 35.8 µM | [8] 18.7 µM | [9] 33.8 µM | [10] 33.2 µM | [20] 29 µM | [11] 17 µM | [12] 28.4 µM | [13] 26.5 µM | [14] 18.1 µM | [16] 33.5 µM | [17] 27.5 µM | [18] 17.7 µM

CS[C@]12[C@@H]3C(=O)N(C)C(=O)[C@@H]3[C@](C)(C(=O)N1C)C(=O)N2c1ccccc1
inactive: [1] > 100 µM | [2] > 100 µM | [3] > 100 µM | [4] > 100 µM | [5] > 100 µM | [6] > 100 µM | [7] > 100 µM | [8] > 100 µM | [9] > 100 µM | [10] > 100 µM | [20] > 100 µM | [11] > 100 µM | [12] > 100 µM | [13] > 100 µM | [15] > 100 µM | [16] > 100 µM | [17] > 100 µM | [18] > 100 µM

Cc1nc2ccc(S(=O)(=O)Nc3ccccc3Cl)cc2c(=O)n1NC(=O)CNc1ccccc1Cl
inactive: [1] > 100 µM | [2] > 100 µM | [3] > 100 µM | [19] > 100 µM | [4] > 100 µM | [5] > 100 µM | [7] > 100 µM | [8] > 100 µM | [9] > 100 µM | [10] > 100 µM | [20] > 100 µM | [11] > 100 µM | [12] > 100 µM | [13] > 100 µM | [14] > 100 µM | [16] > 100 µM | [17] > 100 µM | [18] > 100 µM
